Measurements reported in patent US11161852B1 (Halia Therapeutics, Inc., priority 2020, dated 2021).

Biological target: full-length recombinant human NEK7 (Homo sapiens (Human), UniProt Q8TDX7)
Assay: NEK7 Enzymatic Assay ([33P]-ATP, casein substrate)
Format: biochemical
Experimental: Casein substrate (from bovine milk, hydrolyzed and partially dephosphorylated mixture of α, β and a caseins, obtained from Sigma Aldrich, catalogue #C4765, diluted in distilled water to a final concentration of 1 mg/mL) and full-length recombinant human NEK7 (expressed by baculovirus in Sf9 insect cells using a N-terminal GST tag, obtained from SignalChem, catalogue #N09-10G, 0.1 μg/μL) were mixed in assay buffer (20 mM Hepes pH 7.5, 10 mM MgCl2, 1 mM EGTA, 0.02% Brij35, 0.02 mg/ml BSA, 0.1 mM Na3VO4, 2 mM DTT, 1% DMSO). Compounds of interest (serial 3-fold dilution in DMSO from 10 μM to 0.5 nM) or vehicle (1% DMSO) were dispensed into the kinase reaction mixture by Acoustic technology (Echo550; nanoliter range). After incubation at room temperature for 20 minutes, the kinase reaction was initiated by addition of [^33P]-ATP (specific activity […]) and the mixture was incubated at room temperature for 2 hours. The reaction was then stopped by spotting the reaction mixture on strips of phosphocellulose P81 paper. Following washing, the radioactivity of the P81 paper was measured and kinase activity data were expressed as the percent remaining kinase activity in test samples compared to vehicle reactions. IC50 values and curve fits were obtained using Prism (GraphPad Software).

Sequence of full-length recombinant human NEK7 (Q8TDX7 whole entry): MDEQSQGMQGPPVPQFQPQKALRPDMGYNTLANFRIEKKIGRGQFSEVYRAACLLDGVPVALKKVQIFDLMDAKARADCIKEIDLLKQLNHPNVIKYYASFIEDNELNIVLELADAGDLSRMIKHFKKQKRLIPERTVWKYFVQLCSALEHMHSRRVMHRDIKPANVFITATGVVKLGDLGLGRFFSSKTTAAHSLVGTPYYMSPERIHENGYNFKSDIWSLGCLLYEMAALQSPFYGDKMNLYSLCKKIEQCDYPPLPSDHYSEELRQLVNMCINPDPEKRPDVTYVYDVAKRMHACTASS

Row | Compound | IC50 [nM]
1 | CC(C)(C)c1csc(NC(=O)Nc2ccc(-c3cn(C4CC4)c4ncnc(N)c34)cc2F)n1 [Example 18, 1-(4-(4-amino-7-cyclopropyl-7H-pyrrolo[2,3-d]pyrimidin-5-yl)-2-fluorophenyl)-3-(4-(tert-butyl)thiazol-2-yl)urea] | > 1500
2 | Nc1ncnc2c1c(-c1ccc(NC(=O)Nc3cc(CO)no3)c(F)c1)cn2C1CC1 [Example 36, 1-(4-(4-amino-7-cyclopropyl-7H-pyrrolo[2,3-d]pyrimidin-5-yl)-2-fluorophenyl)-3-(3-(hydroxymethyl)isoxazol-5-yl)urea] | 501 to 1500
3 | Nc1nccc2c1c(-c1ccc(NC(=O)Nc3cc(C4(C(F)(F)F)CC4)no3)c(F)c1)cn2C1CC1 [Example 62, 1-(4-(4-amino-1-cyclopropyl-1H-pyrrolo[3,2-c]pyridin-3-yl)-2-fluorophenyl)-3-(3-(1-(trifluoromethyl)cyclopropyl)isoxazol-5-yl)urea] | > 1500
4 | Nc1ncnc2c1c(-c1cc(F)c(NC(=O)Nc3cc(C4(C(F)(F)F)CC4)no3)cc1F)cn2C1CC1 [Example 42, 1-(4-(4-amino-7-cyclopropyl-7H-pyrrolo[2,3-d]pyrimidin-5-yl)-2,5-difluorophenyl)-3-(3-(1-(trifluoromethyl)cyclopropyl)isoxazol-5-yl)urea] | 501 to 1500
5 | CC(C)(C)c1cc(NC(=O)Nc2ccc(-c3cn(C4CC4)c4ncnc(N)c34)cc2F)sn1 [Example 20, 1-(4-(4-amino-7-cyclopropyl-7H-pyrrolo[2,3-d]pyrimidin-5-yl)-2-fluorophenyl)-3-(3-(tert-butyl)isothiazol-5-yl)urea] | > 1500
6 | Cc1cc(NC(=O)Nc2ccc(-c3cn(C4CC4)c4ncnc(N)c34)cc2F)no1 [Example 8, 1-(4-(4-amino-7-cyclopropyl-7H-pyrrolo[2,3-d]pyrimidin-5-yl)-2-fluorophenyl)-3-(5-methylisoxazol-3-yl)urea] | 501 to 1500
7 | CN1CCC(n2cc(-c3ccc(NC(=O)Nc4cc(C5(C(F)(F)F)CC5)no4)c(F)c3)c3c(N)ncnc32)CC1 [Example 26, 1-(4-(4-amino-7-(1-methylpiperidin-4-yl)-7H-pyrrolo[2,3-d]pyrimidin-5-yl)-2-fluorophenyl)-3-(3-(1-(trifluoromethyl)cyclopropyl)isoxazol-5-yl)urea] | 301 to 500
8 | Nc1ncnc2c1c(-c1cc(F)c(NC(=O)Nc3cc(C4(C(F)(F)F)CC4)no3)c(F)c1)cn2C1CC1 [Example 41, 1-(4-(4-amino-7-cyclopropyl-7H-pyrrolo[2,3-d]pyrimidin-5-yl)-2,6-difluorophenyl)-3-(3-(1-(trifluoromethyl)cyclopropyl)isoxazol-5-yl)urea] | > 1500
9 | CC(C)(C)c1cc(NC(=O)NC2CCC(c3cn(C4CC4)c4ncnc(N)c34)CC2)on1 (centres unmarked) [Example 16, 1-(4-(4-amino-7-cyclopropyl-7H-pyrrolo[2,3-d]pyrimidin-5-yl)cyclohexyl)-3-(3-(tert-butyl)isoxazol-5-yl)urea] | > 1500
10 | Nc1ncnc2c1c(-c1c(F)cc(NC(=O)Nc3cc(C4(C(F)(F)F)CC4)no3)cc1F)cn2C1CC1 [Example 43, 1-(4-(4-amino-7-cyclopropyl-7H-pyrrolo[2,3-d]pyrimidin-5-yl)-3,5-difluorophenyl)-3-(3-(1-(trifluoromethyl)cyclopropyl)isoxazol-5-yl)urea] | > 1500
11 | Nc1ncnc2c1c(-c1cnc(NC(=O)Nc3cc(C4(C(F)(F)F)CC4)no3)c(F)c1)cn2C1CC1 [Example 44] | 501 to 1500
12 | COc1cc(-c2cn(C3CC3)c3ncnc(N)c23)ccc1NC(=O)Nc1cc(C2(C(F)(F)F)CC2)no1 [Example 55, 1-(4-(4-amino-7-cyclopropyl-7H-pyrrolo[2,3-d]pyrimidin-5-yl)-2-methoxyphenyl)-3-(3-(1-(trifluoromethyl)cyclopropyl)isoxazol-5-yl)urea] | > 1500
13 | N#Cc1cc(-c2cn(C3CC3)c3ncnc(N)c23)ccc1NC(=O)Nc1cc(C2(C(F)(F)F)CC2)no1 [Example 50, 1-(4-(4-amino-7-cyclopropyl-7H-pyrrolo[2,3-d]pyrimidin-5-yl)-2-cyanophenyl)-3-(3-(1-(trifluoromethyl)cyclopropyl)isoxazol-5-yl)urea] | > 1500
14 | CC(C)(C)n1cnc(NC(=O)Nc2ccc(-c3cn(C4CC4)c4ncnc(N)c34)cc2F)n1 [Example 22, 1-(4-(4-amino-7-cyclopropyl-7H-pyrrolo[2,3-d]pyrimidin-5-yl)-2-fluorophenyl)-3-(1-(tert-butyl)-1H-1,2,4-triazol-3-yl)urea] | > 1500

Further lines, results first:

Row | IC50 [nM] | Compound
15 | < 150 | Nc1ncnc2c1c(-c1ccc(NC(=O)Nc3cc(C4(C(F)(F)F)CC4)no3)c(F)c1)cn2CCO [Example 52, 1-(4-(4-amino-7-(2-hydroxyethyl)-7H-pyrrolo[2,3-d]pyrimidin-5-yl)-2-fluorophenyl)-3-(3-(1-(trifluoromethyl)cyclopropyl)isoxazol-5-yl)urea]
16 | < 150 | COCCn1cc(-c2ccc(NC(=O)Nc3cc(C4(C(F)(F)F)CC4)no3)c(F)c2)c2c(N)ncnc21 [Example 51, 1-(4-(4-amino-7-(2-methoxyethyl)-7H-pyrrolo[2,3-d]pyrimidin-5-yl)-2-fluorophenyl)-3-(3-(1-(trifluoromethyl)cyclopropyl)isoxazol-5-yl)urea]
17 | < 150 | CC1(c2cc(NC(=O)Nc3ccc(-c4cn(C5CC5)c5ncnc(N)c45)cc3F)on2)COC1 [Example 27, 1-(4-(4-amino-7-cyclopropyl-7H-pyrrolo[2,3-d]pyrimidin-5-yl)-2-fluorophenyl)-3-(3-(3-methyloxetan-3-yl)isoxazol-5-yl)urea]
18 | 301 to 500 | Nc1ncnc2c1c(-c1ccc(NC(=O)Nc3cc(C4(C(F)(F)F)CC4)no3)c(F)c1)cn2C1CCC1 [Example 53, 1-(4-(4-amino-7-cyclobutyl-7H-pyrrolo[2,3-d]pyrimidin-5-yl)-2-fluorophenyl)-3-(3-(1-(trifluoromethyl)cyclopropyl)isoxazol-5-yl)urea]
19 | < 150 | 1-(4-(4-amino-7-(2-hydroxy-2-methylpropyl)-7H-pyrrolo[2,3-d]pyrimidin-5-yl)-2-fluorophenyl)-3-(5-(1-(trifluoromethyl)cyclopropyl)isoxazol-3-yl)urea [Example 47]
20 | 301 to 500 | CC(C)(C)c1nnc(NC(=O)Nc2ccc(-c3cn(C4CC4)c4ncnc(N)c34)cc2F)o1 [Example 23, 1-(4-(4-amino-7-cyclopropyl-7H-pyrrolo[2,3-d]pyrimidin-5-yl)-2-fluorophenyl)-3-(5-(tert-butyl)-1,3,4-oxadiazol-2-yl)urea]
21 | < 150 | Nc1ncnc2c1c(-c1ccc(NC(=O)Nc3cc(C4(C(F)(F)F)CCC4)on3)c(F)c1)cn2C1CC1 [Example 57, 1-(4-(4-amino-7-cyclopropyl-7H-pyrrolo[2,3-d]pyrimidin-5-yl)-2-fluorophenyl)-3-(5-(1-(trifluoromethyl)cyclobutyl)isoxazol-3-yl)urea]
22 | 151 to 300 | Nc1ncnc2c1c(-c1ccc(NC(=O)Nc3cc(C4(C(F)(F)F)CCC4)no3)c(F)c1)cn2C1CC1 [Example 45, 1-(4-(4-amino-7-cyclopropyl-7H-pyrrolo[2,3-d]pyrimidin-5-yl)-2-fluorophenyl)-3-(3-(1-(trifluoromethyl)cyclobutyl)isoxazol-5-yl)urea]
23 | < 150 | Nc1ncnc2c1c(-c1ccc(NC(=O)Nc3cc(C4(C(F)(F)F)CC4)on3)c(F)c1)cn2CCO [Example 61, 1-(4-(4-amino-7-(2-hydroxyethyl)-7H-pyrrolo[2,3-d]pyrimidin-5-yl)-2-fluorophenyl)-3-(5-(1-(trifluoromethyl)cyclopropyl)isoxazol-3-yl)urea]
